Measurements reported in PMC9146228, “Bioactivity of Novel Pyrazole-Thiazolines Scaffolds against Trypanosoma cruzi: Computational Approaches and 3D Spheroid Model on Drug Discovery for Chagas Disease” (Pharmaceutics, 2022).
Like-named read-outs stand apart in the source and are kept apart here.

Assays:
[1] = tested on: T. cruzi (Dm28c-Luc) intracellular amastigotes; test: Trypanocidal activity against intracellular amastigotes in infected Vero cell monolayers; format: cell-based, Trypanosoma cruzi; conditions: for IC90: read-out: Trypanocidal Activity Intracellular Amastigotes IC90; for Intracellular Amastigotes SI (CC50 of Vero cells/IC50): selectivity index vs Vero cells
Description: The susceptibility of intracellular amastigotes to pyrazole-thiazoline derivatives (series 1 and 2) was evaluated using 24 h T. cruzi-infected Vero cell monolayers (10:1 parasite/host cell ratio). Then, the cultures were washed with PBS to remove non-internalized parasites, and 200 μL of fresh medium with a serial dilution of pyrazole-thiazoline derivatives and Bz (0.41–100 µM) was added for 72 h at 37 °C.
(§1) After 72 h of treatment, luciferin (300 µg/mL) was added to the culture, and the viability of the parasites was assessed by reading the luminescent signal on the GloMax reader (Promega Corporation, Madison, WI, USA). Controls were also performed in non-toxic concentrations of DMSO (≤ 1%). The concentration that reduces the number of viable parasites by 50% (IC50) or 90% (IC90) was calculated by linear regression. The selectivity index (SI) was calculated as CC50/IC50 for each parasite form.

[2] = Cytotoxicity in vitro assay (CellTiter-Glo); format: cell-based; conditions: African green monkey, Vero cells, mean ± SD
Description: Vero cells, obtained from the Rio de Janeiro Cell Bank (BCRJ code 0245), were dissociated with trypsin–EDTA solution (0.025%), and maintained in RPMI 1640 medium supplemented with 10% fetal bovine serum (FBS) at 37 °C in a humidified atmosphere of 5% CO2.
The compound toxicity was evaluated in Vero cell cultures. Briefly, Vero cells were seeded in 96-well white culture plates at a density of 1.5 × 10^4 cells/well for 24 h at 37 °C and 5% CO2. Thereafter, the cell monolayers were washed with phosphate-buffered saline (PBS) and 200 μL of fresh medium with a serial dilution of the pyrazole-thiazoline derivatives and Bz (1.9–500 µM) added. The cell viability was determined by luminescent assay using the CellTiter-Glo Kit (Promega Corporation, Madison, WI, USA) based on the ATP level. After 72 h of treatment, 20 μL of CellTiter-Glo solution was added per well, and cultures were kept for 2 min under agitation. The luminescent signal was read on the GloMax reader (Promega Corporation, Madison, WI, USA). The concentration of compounds that reduced 50% of cell viability (CC50) was calculated by linear regression. At least three independent assays were performed in duplicate.

[3] = tested on: T. cruzi Dm28c-Luc in Vero cell cultures; test: Reversibility (washout) assay; format: cell-based, Trypanosoma cruzi; conditions: 100 µM, 72 h treatment then 72 h drug-free; for inhibition at 100 µM: Trypanosoma cruzi, Vero, read-out: inhibition of cell monolayer infection (intracellular amastigotes) after washout
Description: Then, the cultures were washed with PBS, and maintained for another 72 h at 37 °C in a drug-free medium. Trypomastigotes released in the culture supernatant were detected by transferring the culture medium to 96-well plates, followed by luciferin (300 µg/mL) addition. Viable intracellular amastigotes were also accessed by adding luciferin solution to the cell monolayers.

[4] = tested on: T. cruzi (Dm28c-Luc) trypomastigotes; test: microbe, parasite or virus in culture; format: cell-based, Trypanosoma cruzi
Description: The screening assays were performed with T. cruzi clone Dm28c (TcI) genetically modified to express luciferase gene (Dm28c-Luc), kindly provided by Dr. Cristina Henriques. Trypomastigotes were isolated from T. cruzi-infected Vero cell monolayers (10:1 parasites/host cell ratio). On the 4th day post-infection (dpi), free trypomastigotes in the culture supernatant were harvested, and the number of parasites/mL was quantified in a Neubauer chamber.
The trypanocidal activity of the pyrazole-thiazoline derivatives was evaluated against trypomastigote and intracellular amastigote forms of T. cruzi (Dm28c-Luc). Tissue-derived trypomastigotes (1 × 10^6 parasites/well) were incubated with pyrazole-thiazoline derivatives and Bz in different concentrations (0.41–100 µM) for 24 h at 37 °C in a humidified atmosphere and 5% CO2. The parasite viability was determined by the addition of luciferin (300 µg/mL), followed by luminescence detection on the GloMax microplate reader (Promega Corporation, Madison, WI, USA).
as §1

[5] = tested on: T. cruzi (strain Silvio X10/7); set-up: method as in PMID 30001347; conditions: 16 days treatment of infected Vero cell monolayers; cited from earlier work
[6] = tested on: T. cruzi (Dm28c-Luc)-infected Vero cell spheroids; test: 3D culture model: T. cruzi-infected Vero cell spheroids; format: cell-based, Trypanosoma cruzi; conditions: for DAPI staining fluorescence microscopy of infected microtissue: 100 μM; for parasite load, arbitrary luminescence unit (ALU): 72 h, concentration higher than IC90 (100 μM in Figure 6 legend), untreated ALU = 166,678 ± 22,824
Description: Tridimensional Vero cell cultures were obtained as previously described. Briefly, the isolated cells (2 × 10^4/well) were cultured in 96-well U-bottom plates previously coated with 1% agarose. The spheroids were kept for 5 days at 37 °C in RPMI 1640 medium supplemented with 10% FBS for complete three-dimensional organization. Both 2D and 3D culture models were used for trypanocidal activity assays.
Vero cell spheroids were infected for 24 h with 2 × 10^5 trypomastigotes (Dm28c-Luc). […] Parasite load was assessed by the luminescence reaction after adding the luciferase substrate (luciferin 300 µg/mL). In addition, fluorescence microscopy images of untreated and treated T. cruzi-infected spheroids were acquired after fixing the cultures with 4% paraformaldehyde in PBS and 4′,6-diamidino-2-phenylindole (DAPI) staining, a DNA dye. The samples were observed under the Zeiss Axio Imager M2 fluorescence microscope (Carl Zeiss, Baden-Württemberg, Germany).

[7] = tested on: T. cruzi cysteine proteases (trypomastigote protein extract); test: Proteinase activity in solution (Z-FR-AMC); format: biochemical, Trypanosoma cruzi; conditions: for maximum inhibition of cysteine protease activity: up to 100 µM, Z-FR-AMC substrate
Description: Trypomastigote protein extracts (Dm28c-Luc; 10^8 parasites/mL) were obtained as previously described. The cysteine protease activity of the total protein extracts (5 µg) was measured using the reaction buffer (CH3COONa 10 mM, pH 5.0 containing 1 mM DTT), in the presence of the fluorogenic peptide substrate […], CBZ-L-Phenylalanyl-l-Arginine amide (Z -FR-AMC), and serial dilutions of pyrazole-thiazolines derivatives (100–6.25 µM). The samples were incubated for 45 min at room temperature. The variation in arbitrary fluorescence units (AFU), corresponding to the enzymatic cleavage of the fluorogenic substrate, was monitored in a SpectraMax M2e reader (Molecular Devices, Sunnyvale, CA, USA) for 1 h, with excitation values at 370 nm and emission values at 460 nm. Extracts incubated with 0.5% DMSO or with cysteine protease inhibitor E-64 were used as […]. […] The inhibitory activity was expressed as percentage inhibition.

[8] = Trypanosoma cruzi; Dm28c-Luc, 24 h, mean ± SD; read-out: Trypanocidal Activity Trypomastigotes IC90
[9] = selectivity index vs Vero cells
[10] = Dm28c-Luc in Vero cells, 72 h, mean ± SD, read-out: Trypanocidal Activity Intracellular Amastigotes IC50
[11] = Trypanosoma cruzi, Vero, 72 h, Dm28c-Luc in Vero cells, 72 h, mean ± SD, read-out: Trypanocidal Activity Intracellular Amastigotes IC50
[12] = Trypanosoma cruzi, Vero, pIC50 = −log IC50, Dm28c-Luc clone, read-out: Intracellular Amastigotes pIC50 (converted)
[13] = Trypanosoma cruzi, Dm28c-Luc in Vero cells, 72 h, mean ± SD
[14] = Dm28c-Luc, 24 h, mean ± SD; read-out: Trypanocidal Activity Trypomastigotes IC50
[15] = Trypanosoma cruzi, 24 h, Dm28c-Luc, 24 h, mean ± SD; read-out: Trypanocidal Activity Trypomastigotes IC50

SMILES | CC50 at 72 h [2] | IC90 [4, 8] | Trypomastigotes SI (CC50 of Vero cells/IC50) [4, 9] | DAPI staining fluorescence microscopy of infected microtissue [6] | parasite load, arbitrary luminescence unit (ALU) [6] | IC50 [1, 10] | IC50 [1, 11] | IC50 [1, 12] | IC90 [1, 13] | IC50 [4, 15] | Intracellular Amastigotes SI (CC50 of Vero cells/IC50) [1] | melting point | other results
O=C(Cn1ccnc1[N+](=O)[O-])NCc1ccccc1 [Bz, benznidazole, reference compound] | > 500 µM | 95.9 ± 4.7 µM | >18.9 | drastic reduction in the infection profile | 20,024 ± 2796 ALU | – | – | – | – | – | – | – | IC50 ([1]; Trypanosoma cruzi, Vero, 72 h, read-out: Trypanocidal Activity Intracellular Amastigotes IC50): 3.3 ± 1.1 µM; IC90 ([1]; Trypanosoma cruzi, Vero, 72 h): 13.7 ± 4.2 µM; IC50 ([1]; Trypanosoma cruzi, Vero, read-out: Intracellular Amastigotes pIC50 (converted)): 3.31 µM; parasite clearance in supernatant and cell monolayers after washout [3]: sustained the parasite clearance; IC50 ([4]; Trypanosoma cruzi; Dm28c-Luc, 24 h, mean ± SD; read-out: Trypanocidal Activity Trypomastigotes IC50): 19.6 ± 2.3 µM; parasite relapse / clearance after prolonged treatment [5]: prevention of spontaneous parasite relapse for up to 60 days
Clc1ccc(-n2cc(C3=NCCS3)cn2)cc1Cl [Compound 2e, 2-(1-(3,4-dichlorophenyl)-1H-pyrazol-4-yl)-4,5-dihydrothiazole] | – | 6.9 ± 2 µM | – | reduction in parasite load | 15,110 ± 1990 ALU | 7.84 ± 1 µM | < 10 µM | < 6.92 µM | 30.4 ± 3.7 µM | ≤ 2.1 µM | – | – | maximum inhibition of cysteine protease activity [7]: ≤ 10%; inhibition at 100 µM [3]: 69%; IC50 [4, 14]: 1.9 ± 0.4 µM
Fc1ccc(-n2cc(C3=NCCS3)cn2)cc1 [Compound 2g, 2-(1-(4-fluorophenyl)-1H-pyrazol-4-yl)-4,5-dihydrothiazole] | 58.6 ± 8.11 µM | 30.1 ± 2.8 µM | 7.3 | – | – | – | 14 ± 1.8 µM | 14.1 µM | 98 ± 3.4 µM | 7.9 ± 1 µM | 4.18 | 131 to 133 °C | –
Fc1cccc(-n2cc(C3=NCCS3)cn2)c1 [Compound 2h, 2-(1-(3-fluorophenyl)-1H-pyrazol-4-yl)-4,5-dihydrothiazole] | 37.9 ± 4.8 µM | 36.3 ± 3.2 µM | 3.8 | – | – | 9.1 ± 1.7 µM | < 10 µM | ~10 µM | 76.3 ± 6.1 µM | 9.8 ± 1.5 µM | 4.19 | 92 to 94 °C | –
Brc1ccc(-n2cc(C3=NCCS3)cn2)cc1 [Compound 2i, 2-(1-(4-bromophenyl)-1H-pyrazol-4-yl)-4,5-dihydrothiazole] | – | 13.3 ± 2.8 µM | – | reduction in parasite load | 25,788 ± 2776 ALU | 6.8 ± 1.1 µM | < 10 µM | < 6.92 µM | 27.1 ± 3.6 µM | ≤ 2.1 µM | 31.8 | – | maximum inhibition of cysteine protease activity [7]: ≤ 10%; inhibition at 100 µM [3]: 89%; IC50 [4, 14]: 2.1 ± 0.9 µM
Brc1cccc(-n2cc(C3=NCCS3)cn2)c1 [Compound 2j, 2-(1-(3-bromophenyl)-1H-pyrazol-4-yl)-4,5-dihydrothiazole] | 64.5 ± 7.3 µM | 48.2 ± 4.1 µM | 7.11 | – | – | 8.1 ± 1.3 µM | < 10 µM | ~10 µM | 31.1 ± 3.1 µM | 9.1 ± 0.9 µM | 7.9 | 104 to 106 °C | –
COc1ccc(-n2cc(C3=NCCS3)cn2)cc1 [Compound 2k, 2-(1-(4-methoxyphenyl)-1H-pyrazol-4-yl)-4,5-dihydrothiazole] | 110 ± 9.4 µM | 36.1 ± 2.6 µM | 36.1 | – | – | – | 22.4 ± 2.8 µM | 22.9 µM | 53 ± 9.8 µM | 3.1 ± 0.3 µM | 4.9 | 114 to 116 °C | –
Clc1cccc(-n2cc(C3=NCCS3)cn2)c1Cl [Compound 2l, 2-(1-(2,3-dichlorophenyl)-1H-pyrazol-4-yl)-4,5-dihydrothiazole] | 88.7 ± 9.3 µM | > 100 µM | 3.44 | – | – | – | 25.3 ± 2.4 µM | 25.7 µM | 75.5 ± 8.3 µM | 25.8 ± 1.9 µM | 3.5 | 112 to 114 °C | –
CC(C)C[C@H](NC(=O)[C@H]1O[C@@H]1C(=O)O)C(=O)NCCCCN=C(N)N [Compound E-64, E-64, reference compound] | – | – | – | – | – | – | – | – | – | – | – | – | inhibition of cysteine protease activity ([7]; from the lowest concentration analyzed (6.25 µM)): more than 80%
CC[C@@H]([C@H](C)O)n1ncn(-c2ccc(N3CCN(c4ccc(OC[C@@H]5CO[C@@](Cn6cncn6)(c6ccc(F)cc6F)C5)cc4)CC3)cc2)c1=O [posaconazole] | – | – | – | – | – | – | – | – | – | – | – | – | parasite relapse / clearance after prolonged treatment [5]: unable to achieve parasite clearance
